Measured values published in ChEMBL document CHEMBL1145025, “Structure-activity relationship of (1-aryl-2-piperazinylethyl)piperazines: antagonists for the AGRP/melanocortin receptor binding” (J Med Chem, 2003).
Active and inactive are the calls of the source.

Legend:
[1] = target: T1, Melanocortin receptor 4 (Homo sapiens, UniProt P32245); experiment: In vitro ability to inhibit the binding of [125I]AGRP to the human Melanocortin 4 receptor
[2] = target: T1, Melanocortin receptor 4; experiment: In vitro ability to inhibit the binding of alpha [125I]NDP-MSH to the human Melanocortin 4 receptor
[3] = target: T1, Melanocortin receptor 4; experiment: Fold selectivity for AGRP vs NDP-MSH binding was reported
[4] = Fold selectivity for AGRP vs NDP-MSH binding to human MC4R was reported; Minimal activity
[5] = Fold selectivity for AGRP vs NDP-MSH binding was reported; Minimal Activity.

T1 sequence (P32245 whole entry): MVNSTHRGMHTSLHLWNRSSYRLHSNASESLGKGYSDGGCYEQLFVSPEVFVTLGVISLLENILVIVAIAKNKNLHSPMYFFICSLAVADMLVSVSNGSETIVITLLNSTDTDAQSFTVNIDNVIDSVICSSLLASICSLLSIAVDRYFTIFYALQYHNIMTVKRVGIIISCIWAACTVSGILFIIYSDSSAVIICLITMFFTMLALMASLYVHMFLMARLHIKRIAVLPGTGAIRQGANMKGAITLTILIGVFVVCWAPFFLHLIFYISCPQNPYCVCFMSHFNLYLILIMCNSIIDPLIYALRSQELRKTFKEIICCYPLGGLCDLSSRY

| Structure (SMILES) | IC50 [1] | IC50 [2] | Selectivity [3] | Selectivity [4] | Selectivity [5] |
| --- | --- | --- | --- | --- | --- |
| CC(CN1CCN(CC(c2cccc(Cl)c2)N2CCN(C)CC2)CC1)C(=O)c1ccccc1 (configuration not stated) | 336 nM | 598 nM | 1.8 | – | – |
| CCN1CCN(C(CN2CCN(CC(C)C(=O)c3ccccc3)CC2)c2ccc(F)cc2)CC1 (configuration not stated) | 321 nM | 193 nM | 1.6 | – | – |
| CC(CN1CCN(CC(c2ccc(F)cc2)N2CCN(C)CC2)CC1)C(=O)c1ccc([N+](=O)[O-])cc1 (configuration not stated) | 588 nM | 1500 nM | 2.5 | – | – |
| CC(CN1CCN(CC(c2ccccc2)N2CCN(C)CC2)CC1)C(=O)c1ccccc1 (configuration not stated) | > 5000 nM | > 10000 nM | – | Partially active | – |
| CN1CCN(C(CN2CCN(CCCc3ccccc3)CC2)c2ccc(F)cc2)CC1 (configuration not stated) | > 10000 nM | 3830 nM | – | – | Partially active |
| CN1CCN(C(CN2CCN(CCC(=O)c3ccccc3)CC2)c2ccc(F)cc2)CC1 (configuration not stated) | > 10000 nM | > 10000 nM | – | – | Partially active |
| CC(CN1CCN(CC(c2ccc(F)cc2)N2CCN(C)CC2)CC1)C(=O)c1ccc(C(F)(F)F)cc1 (configuration not stated) | 820 nM | 469 nM | 0.5 | – | – |
| CC(CN1CCN(CC(c2ccc(F)cc2)N2CCN(C)CC2)CC1)C(=O)c1ccc(Cl)c(Cl)c1 (configuration not stated) | 364 nM | 188 nM | 0.5 | – | – |
| CC(CN1CCN(CC(c2ccc(F)cc2)N2CCN(C3CCCCC3)CC2)CC1)C(=O)c1ccccc1 (configuration not stated) | 152 nM | 164 nM | 1 | – | – |
| CC(CN1CCN(CC(c2ccc(F)cc2)N2CCN(C)CC2)CC1)C(=O)c1ccc(Cl)cc1 (configuration not stated) | 266 nM | 178 nM | 0.7 | – | – |
| COc1ccc(C(=O)C(C)CN2CCN(CC(c3ccc(F)cc3)N3CCN(C)CC3)CC2)cc1 (configuration not stated) | 2150 nM | 597 nM | 0.3 | – | – |
| CC(CN1CCN(CC(c2ccc(F)cc2)N2CCN(c3ccccc3)CC2)CC1)C(=O)c1ccccc1 (configuration not stated) | 2860 nM | 249 nM | 0.1 | – | – |
| CN1CCN(C(CN2CCN(CC3CCc4ccccc4C3=O)CC2)c2ccc(Cl)cc2)CC1 (configuration not stated) | > 10000 nM | 3230 nM | – | – | Partially active |
| CC(CN1CCN(CC(c2ccc(Cl)cc2)N2CCN(C)CC2)CC1)C(=O)c1ccc(Cl)cc1 (configuration not stated) | 118 nM | 150 nM | 0.8 | – | – |
